Experimental data: ChEMBL document CHEMBL5244208, “Privileged scaffolds as MAO inhibitors: Retrospect and prospects” (Eur J Med Chem, 2018)
Several values for one entry are separate records, joined by “and”; a condition that tells them apart may be missing. Identical values can stand only once.

These compounds were tested against T1, Amine oxidase [flavin-containing] B (Homo sapiens, UniProt P27338) (assay: Inhibition of human MAO-B). Settings: not given.
T1 sequence (P27338 whole entry): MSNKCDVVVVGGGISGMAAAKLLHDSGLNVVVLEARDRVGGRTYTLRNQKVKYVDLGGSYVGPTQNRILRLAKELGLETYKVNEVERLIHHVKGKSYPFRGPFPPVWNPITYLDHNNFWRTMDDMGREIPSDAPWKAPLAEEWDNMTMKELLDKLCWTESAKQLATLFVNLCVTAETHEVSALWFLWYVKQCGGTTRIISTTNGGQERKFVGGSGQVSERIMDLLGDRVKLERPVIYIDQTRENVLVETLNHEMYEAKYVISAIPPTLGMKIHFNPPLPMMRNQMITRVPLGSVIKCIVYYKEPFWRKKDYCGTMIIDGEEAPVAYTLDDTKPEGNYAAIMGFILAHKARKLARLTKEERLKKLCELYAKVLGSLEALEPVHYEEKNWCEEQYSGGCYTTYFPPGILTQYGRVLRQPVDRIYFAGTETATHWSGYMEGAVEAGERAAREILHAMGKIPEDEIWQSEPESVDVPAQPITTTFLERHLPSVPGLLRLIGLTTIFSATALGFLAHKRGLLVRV
Compound `Oc1ccc(/C=C/c2cc(O)cc3c2[C@@H](c2cc(O)cc(O)c2)C(c2ccc(O)cc2)O3)cc1` (stereo not given in full) has an IC50 of 5 µM.
Compound `OCCn1nnc(-c2ccc(OCc3cccc(Cl)c3)cc2)n1` has an IC50 of 0.002 µM.
For `N#CCCn1nnc(-c2ccc(OCc3cccc(Cl)c3)cc2)n1`, the IC50 was 8 µM.
In the case of `OCCn1nnc(-c2ccc(OCc3ccccc3)cc2)n1`, the IC50 is reported as 0.002 µM.
Compound `N#CCCn1nnc(-c2ccc(OCc3ccccc3)cc2)n1` has an IC50 of 8 µM.

These compounds were tested against T2, Amine oxidase [flavin-containing] A (Rattus norvegicus, UniProt P21396) (assay: Inhibition of rat MAO-A). Settings: not given.
T2 sequence (P21396 whole entry): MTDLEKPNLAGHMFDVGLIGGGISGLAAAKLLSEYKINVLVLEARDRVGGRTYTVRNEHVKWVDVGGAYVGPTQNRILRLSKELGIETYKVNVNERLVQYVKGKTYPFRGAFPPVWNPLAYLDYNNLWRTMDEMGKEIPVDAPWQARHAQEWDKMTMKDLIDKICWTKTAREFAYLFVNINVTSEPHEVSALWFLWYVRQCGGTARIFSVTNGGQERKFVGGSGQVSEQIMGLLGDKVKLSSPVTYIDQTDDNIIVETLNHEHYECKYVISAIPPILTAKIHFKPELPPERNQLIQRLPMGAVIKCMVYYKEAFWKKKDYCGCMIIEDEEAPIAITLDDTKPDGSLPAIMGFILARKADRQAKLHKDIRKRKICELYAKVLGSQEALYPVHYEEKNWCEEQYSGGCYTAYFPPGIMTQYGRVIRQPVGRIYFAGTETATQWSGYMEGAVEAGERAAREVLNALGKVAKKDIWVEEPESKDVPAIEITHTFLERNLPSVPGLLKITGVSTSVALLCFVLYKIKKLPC
With `O=C1C[C@@H](c2ccc(O)cc2)Oc2cc(O)cc(O)c21` [NARINGENIN] the IC50 was 342 µM.

These compounds were tested against T1, Amine oxidase [flavin-containing] B (assay: Inhibition of MAO-B (unknown origin)). Settings: not given.
Work on `NS(=O)(=O)Cc1noc2ccccc12` [ZONISAMIDE] yielded a Ki of 30.8 µM.

Same assay, conditions: read-out: IC50
Work on `COc1ccc(/C(=C\F)CN)cc1OC` yielded an IC50 of 0.01 µM.

Same assay, conditions: read-out: pIC50 (converted)
For `O=c1oc2ccc(Cl)cc2cc1Cl`, the IC50 was 0.01 µM.
`C/C(=C\COc1ccc2ccc(=O)oc2c1)C1=CC(=O)C(C)(C)O1` [GEIPARVARIN] showed an IC50 of 24 µM.

Each compound was assayed against T2, Amine oxidase [flavin-containing] A (assay: In vivo inhibition of MAO-A in Wistar rat with assessed as decrease in MAO activity in […] at 10 to 30 mg/kg, ip measured after 2 hrs). Settings: dose 10-30 mg/kg.
Type: functional, organism-based
Design: scale not given: the % may be the effect or the level left
`C[C@]12CC[C@H](O)CC1=CC[C@@H]1[C@@H]2CC[C@]2(C)C(=O)CC[C@@H]12` [PRASTERONE] showed an Activity of -24%.

Each compound was assayed against T3, Amine oxidase [flavin-containing] A (Homo sapiens, UniProt P21397) (assay: Inhibition of MAO-A (unknown origin)). Settings: not given.
T3 sequence (P21397 whole entry): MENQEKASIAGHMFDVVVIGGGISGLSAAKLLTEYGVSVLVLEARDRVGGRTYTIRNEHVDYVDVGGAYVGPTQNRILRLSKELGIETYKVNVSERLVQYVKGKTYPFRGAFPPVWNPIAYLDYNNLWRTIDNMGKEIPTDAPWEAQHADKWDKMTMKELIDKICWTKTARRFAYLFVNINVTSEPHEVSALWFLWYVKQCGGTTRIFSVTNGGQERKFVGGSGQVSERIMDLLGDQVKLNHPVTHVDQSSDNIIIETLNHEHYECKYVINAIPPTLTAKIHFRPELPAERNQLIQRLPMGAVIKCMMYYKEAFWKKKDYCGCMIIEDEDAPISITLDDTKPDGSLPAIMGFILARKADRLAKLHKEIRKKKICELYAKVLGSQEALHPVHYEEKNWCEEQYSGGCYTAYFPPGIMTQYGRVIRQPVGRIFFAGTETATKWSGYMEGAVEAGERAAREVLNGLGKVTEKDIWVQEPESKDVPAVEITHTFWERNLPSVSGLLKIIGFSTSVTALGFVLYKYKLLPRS
`C[C@@H]1O[C@@H](Oc2c(-c3ccc(O)c(O)c3)oc3cc(O)cc(O)c3c2=O)[C@H](O)[C@H](O)[C@H]1O` [QUERCITRIN] was tested, and the IC50 was 18 µM.

These compounds were tested against T3, Amine oxidase [flavin-containing] A (assay: Inhibition of MAO-A (unknown origin) incubated for 60 mins by fluorometric spectrophotometry analysis). Settings: not given.
`O=c1c(O)c(-c2ccc(O)c(O)c2)oc2cc(O)cc(O)c12` [QUERCETIN] was tested, and the IC50 was 11.6 µM and 10.9 µM.
Work on `C[C@@H]1O[C@@H](OC[C@H]2O[C@@H](Oc3c(-c4ccc(O)c(O)c4)oc4cc(O)cc(O)c4c3=O)[C@H](O)[C@@H](O)[C@@H]2O)[C@H](O)[C@H](O)[C@H]1O` [RUTIN] yielded an IC50 of 3.89 µM.
`O=c1c(O[C@@H]2O[C@H](CO)[C@@H](O)[C@H](O)[C@H]2O)c(-c2ccc(O)c(O)c2)oc2cc(O)cc(O)c12` [ISOQUERCETIN] showed an IC50 of 19.1 µM.

Each compound was assayed against Acetylcholinesterase (Homo sapiens, UniProt P22303) (assay: Inhibition of AChE (unknown origin) using acetylthiocholine chloride as substrate incubated for 5 mins by DTNB reagent based Ellman's method). Settings: not given.
Sequence of Acetylcholinesterase (P22303 whole entry): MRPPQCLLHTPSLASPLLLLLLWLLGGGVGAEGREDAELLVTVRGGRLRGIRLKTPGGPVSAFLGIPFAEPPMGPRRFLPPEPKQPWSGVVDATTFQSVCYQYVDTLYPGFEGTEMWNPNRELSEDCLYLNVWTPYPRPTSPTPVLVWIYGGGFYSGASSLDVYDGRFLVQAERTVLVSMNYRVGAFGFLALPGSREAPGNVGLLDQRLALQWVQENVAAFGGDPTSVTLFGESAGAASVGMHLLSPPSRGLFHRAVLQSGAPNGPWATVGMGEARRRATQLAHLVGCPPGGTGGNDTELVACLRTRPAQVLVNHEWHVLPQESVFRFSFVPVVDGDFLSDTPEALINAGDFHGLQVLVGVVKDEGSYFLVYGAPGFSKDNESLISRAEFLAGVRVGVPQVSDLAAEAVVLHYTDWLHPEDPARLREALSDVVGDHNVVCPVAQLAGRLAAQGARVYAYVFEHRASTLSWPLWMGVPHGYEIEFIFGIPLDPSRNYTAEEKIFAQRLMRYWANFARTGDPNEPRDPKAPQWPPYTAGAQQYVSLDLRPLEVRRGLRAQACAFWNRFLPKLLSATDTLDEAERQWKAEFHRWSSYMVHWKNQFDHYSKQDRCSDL
With `Cc1ccccc1COc1ccc2c(C)c(C)c(=O)oc2c1` the IC50 was 3 µM.
Compound `Cc1cc(=O)c2cc(Oc3ccccc3)ccc2o1` has an IC50 of 3 µM.
With `Cc1c(C)c2ccc(OCc3cccc(O)c3)cc2oc1=O` the IC50 was 3 µM.
With `Cc1c(C)c2ccc(OCCc3ccccc3)cc2oc1=O` the IC50 was 3 µM.
With `Cc1c(C)c2ccc(OCc3cc(F)cc(F)c3)cc2oc1=O` the IC50 was 3 µM.
Compound `Cc1c(C)c2ccc(OCc3cccc(N)c3)cc2oc1=O` has an IC50 of 3 µM.
Work on `Cc1c(C)c2ccc(OCc3ccccc3)cc2oc1=O` yielded an IC50 of 3 µM.
With `Cc1c(C)c2ccc(OCc3ccc(F)c(F)c3)cc2oc1=O` the IC50 was 3 µM.
Work on `O=c1ccoc2ccc(Oc3ccccc3)cc12` yielded an IC50 of 3 µM.

Each compound was assayed against T3, Amine oxidase [flavin-containing] A (assay: Inhibition of human MAO-A using tyramine hydrochloride as substrate preincubated for 30 mins followed by substrate addition and measured for 1 hr by microplate reader method). Settings: not given.
`COc1cc(O)cc(O[C@H]2O[C@@H](CO)[C@H](O)[C@H]2O)c1C(=O)c1cc(O)cc(O)c1` was tested, and the IC50 was 310 µM.
For `O=C(c1cc(O)cc(O)c1)c1c(O)cc(O)cc1O[C@H]1O[C@@H](CO)[C@H](O)[C@H]1O`, the IC50 was 111 µM.
In the case of `O=C(c1cc(O)cc(O)c1)c1c(O[C@@H]2OC[C@@H](O)[C@H](O)[C@H]2O)cc(O)cc1O[C@H]1O[C@@H](CO)[C@H](O)[C@H]1O`, the IC50 is reported as 726 µM.

Each compound was assayed against T1, Amine oxidase [flavin-containing] B (assay: Irreversible inhibition of human recombinant MAO-B). Settings: not given.
`C#CCN(C)Cc1ccc(C(=O)NC2CC(C)(C)N([O])C(C)(C)C2)cc1` gave a Ki of 15 µM.

What follows are compounds tested against T3, Amine oxidase [flavin-containing] A (assay: Inhibition of human recombinant MAO-A). Settings: not given.
With `O=CN(C=O)c1ccc2c(c1)S(=O)(=O)c1ccccc1C2=O` the IC50 was 0.01 µM.
`CCCc1ccc2c(c1)S(=O)(=O)c1cc(NC(C)=O)ccc1C2=O` showed an IC50 of 0.01 µM.
Compound `CC(=O)Nc1ccc2c(c1)S(=O)(=O)c1ccccc1N2C` has an IC50 of 0.01 µM.
For `CC(=O)Nc1ccc2c(c1)S(=O)(=O)c1cc(NC(C)=O)ccc1N2C`, the IC50 was 0.01 µM.
`CC(=O)Nc1cccc2c1C(=O)c1ccccc1C2=O` showed an IC50 of 0.01 µM.
Compound `CC(=O)Nc1ccc2c(c1)S(=O)(=O)c1ccccc1O2` has an IC50 of 0.01 µM.
`CC(=O)Nc1ccc2c(c1)C(=O)c1ccccc1S2(=O)=O` gave an IC50 of 0.01 µM.
Work on `CC(=O)Nc1ccc2c(c1)C(=O)c1ccccc1C2=O` yielded an IC50 of 0.01 µM.
Compound `CC(=O)Nc1ccc2c(c1)S(=O)(=O)c1cc(C)ccc1C2=O` has an IC50 of 0.01 µM.
Compound `CC(=O)Nc1ccc2c(O)c3ccccc3nc2c1` has an IC50 of 0.01 µM.
For `CCc1ccc2c(c1)S(=O)(=O)c1cc(NC(C)=O)ccc1C2=O`, the IC50 was 0.01 µM.
In the case of `CC(=O)Nc1cc2c(cc1NC(C)=O)S(=O)(=O)c1ccccc1C2`, the IC50 is reported as 0.01 µM.
With `CC(=O)Nc1ccc2c(c1)S(=O)(=O)c1ccccc1C2=O` the IC50 was 0.01 µM.
`CC(=O)Nc1ccc2c(c1)S(=O)(=O)c1ccccc1N2` showed an IC50 of 0.01 µM.

What follows are compounds tested against T3, Amine oxidase [flavin-containing] A (assay: Inhibition of recombinant human MAO-A using kynuramine as substrate incubated for 20 mins by spectrophotometry analysis). Settings: not given.
For `COC[C@H]1CN(n2cccc2)C(=O)O1`, the Ki was 0.0049 µM.

Each compound was assayed against T3, Amine oxidase [flavin-containing] A (assay: Irreversible inhibition of human recombinant MAO-A). Settings: not given.
In the case of `C#CCN(C)Cc1cccc(C(=O)NC2CC(C)(C)N([O])C(C)(C)C2)c1`, the Ki is reported as 268 µM.
